According to patent US20220202739A1, “ENDOCANNABINOID MIMETIC AND ANTI-INFLAMMATORY COMPOUND CONTAINING COMPOSITIONS, METHODS OF PREPARATION AND USES THEREOF” (priority 2019, published 2022):

Legend:
MMP1 = experiment: Gene expression custom microarray, pooled keratinocyte line (Example 3): MMP1; assay type: cell-based, human; details: pooled keratinocytes, 20 ppm, 24 hr
Protocol: (§1) Cell cultures: Received and began culture of pooled keratinocyte line from Promocell (C-12006; Lot #448Z026). Cells were seeded into a 75 cm2 flask and 2 6 well dishes for expansion and exposure per manufacturer's protocol using Keratinocyte Growth Medium (C2011B), Keratinocyte Supplement Mix (C39016) and CaCl (C34005). 2 ml of prepared solution were added to each of the 6 wells and 7 ml was added to the 75 cm2 flask.
(§2) Experimental phase: When the appropriate quantity of cells were grown, they were detached as described above, but at the final step were seeded into each well of one or more 6 well dishes. Each well received 2 ml of the cells suspended in suspension so they were seeded equally. The dishes were returned to the incubator until 85-95% confluency is reached.
(§3) It was at this stage that all wells were rinsed in PBS after aspirating the growth media. The compound(s) to be tested were previously mixed into a suitable solvent (e.g., DMSO or ethanol) that can be diluted to the desired concentration of test compound (10 μl) in the culture wells without exceeding maximum solvent concentrations and adversely effecting cell viability, and mixed with Basal Keratinocyte Media. NOTE: Standard maximum levels of solvent are 0.1% for DMSO and 0.5% for ETOH. The concentration for each tested compound/natural extract is generally listed in the left-hand column of Table 4. For certain compositions (e.g., compositions 15 and 16), other concentrations were used and are noted in the body of Table 4.
(§4) Every 2 wells on the 6 well plate served as a biological replicate for the purposes of RNA isolation and genetic expression evaluations making each 6 well dish an n=3 for the test compound contained in the media. […]
(§5) At the end of the 24 hr time period, the plates were removed from the incubator, the test media aspirated, and the cells rinsed with PBS. […] Allow 1 minute for saturation of the membrane and then centrifuge for 2 minutes to complete the RNA elution. • Quantify the quantity of RNA and store at −20 C° until use (no more than 1 month) […]

JUN = experiment: Gene expression custom microarray, pooled keratinocyte line (Example 3): JUN; assay type: cell-based, human; details: pooled keratinocytes, 20 ppm, 24 hr
Protocol: as §1, §2, §3, §4, §5

Structure (SMILES)	↓MMP1 gene expression, fold increase or decrease vs untreated cells (MMP1) [fold]	↓JUN gene expression, fold increase or decrease vs untreated cells (JUN) [fold]
C=C(C)[C@@H]1CCC(C)=C[C@H]1c1c(O)cc(CCCCC)cc1O [CBD, cannabidiol, reference compound]	6.5	2.7
CCCCCCCCCCCCCCCC(=O)NCCO [N-palmitoylethanolamide]	12.2	−1.9
CC(C)[C@]12O[C@H]1[C@@H]1O[C@]13[C@]1(O[C@H]1C[C@H]1C4=C(CC[C@@]13C)C(=O)OC4)[C@@H]2O [Triptolide]	1.2	−4.7
